Assay results as given in US20080241194A1, “COMPOSITIONS AND METHODS FOR PROTECTING ORGANS, TISSUE AND CELLS FROM IMMUNE SYSTEM-MEDIATED DAMAGE” (THE BOARD OF TRUSTEES OF THE LELAND STANFORD JUNIOR …, priority 1998, published 2008).

Assays:
OCI-Ly8 tumor cell = experiment: ^51Cr release CIK cytotoxicity assay, tumor targets; format: cell-based, human; conditions: OCI-Ly8 incubated with BFA 0-10 μM for 6 hours, E:T 20:1
Method: (§1) Target cells were metabolically labelled with ^51Cr (Dupont—New England Nuclear, Boston, Mass.) by incubating 1×10^6 cells in […] ^51Cr at 37° C. for 1-1.5 hours. The labelled cells were washed three times with phosphate buffered saline (PBS) containing 0.1% bovine serum albumin. The labelled cells were distributed in flat-bottomed 96 well microtiter plates at a concentration of 2×10^4 cells/well in triplicate. Effector (CIK) cells were added at the indicated ratios. Mabs were added prior to the addition of effector cells, and incubated for 15-30 minutes at room temperature. The final volume of the assay mixture in each well was 0.2 ml. After 4 hours at 37° C., the cells were collected by centrifugation and an aliquot of the supernatant was counted in a gamma counter (Micromedic Systems, Horsham, Pa.). The percentage of specific ^51Cr release was calculated according to the following equation: […]
Spontaneous release was obtained by incubating the labelled cells in complete medium alone and maximal release by treatment of the cells with 1% NP-40. […]

HUVEC = experiment: ^51Cr release CIK cytotoxicity assay, endothelial cell targets pre-treated with BFA, protein or peptide; format: cell-based, human; parameters: block of CIK mediated lysis of HUVECs: dose or concentration left out as unconfirmed; conditions: for protection of EC from CIK lysis by pre-incubation with purified native protein: gelatin purified protein, 30 minutes, washed before CIK addition
Method: as §1
Spontaneous release was obtained by incubating the labelled cells in complete medium alone and maximal release by treatment of the cells with 1% NP-40.
For brefeldin A (BFA) treatment, freshly confluent HUVEC monolayers, nonadherent target cells or CIK cells at 0.5-2×10^6 cells per ml were incubated with medium supplemented with 0.5-10 μg of brefeldin A (B6hringer Mannheim GmbH, Mannheim, Germany) per ml medium and incubated for 2-6 hours in a humidified incubator with 5% carbon dioxide at 37° C. BFA was dissolved at 100 μg per ml in 70% ethanol and used fresh or stored up to 4 weeks at −20° C. Prior to cytotoxicity assay the cells were rinsed three times with PBS, and fresh medium not containing BFA was added for the remainder of the assay (FIG. 4).
Both HUVEC and OCI-Ly8 cells were incubated with BFA at concentrations of 0, 2.5, 5, 7.5 and 10 μM for 6 hours as described above, washed, labeled with ^51Cr and used in a cytotoxicity assay with d21 CIK cells at an E:T ratio of 20:1. Preincubation of EC targets with 2.5 μM BFA reduced CIK mediated cytotoxicity by 40%.
Subsequent to ^51Cr labeling but prior to addition of effector cells 10-200 μg FPLC purified Hsp47 (Example 7) protein or 10 nM to 10 μM HPLC purified peptide […] (SEQ ID NO:3) (Example 8), both in sterile PBS at pH 7.4 and diluted to the final concentration with RPMI, were added to targets per ml of medium and incubated for 30 minutes at 37° C. in a humidified atmosphere of 5% CO2. In assays using purified protein, targets were subjected to three subsequent washes with 10 volumes of Ca^2+, Mg^2+ and 5% FCS containing PBS prior to providing fresh standard culture medium to the target cells. In assays using purified peptide, the added peptide was present for the entire assay. The remainder of the assay was performed as detailed above, at 37° C. in a humidified atmosphere of 5% CO2.

46.5 KDa protein (Hsp47) = experiment: Immunoprecipitation and autoradiography of ^35S labeled 46.5 KDa protein from EC; format: cell-based, human
Method: For metabolic ^35S methionine/cysteine labelling cells were cultured for 22 hours in cysteine and methionine free RPMI 1640 or Hams-F12K (Irvine Scientific, Santa Ana, Calif.) media with dialyzed FCS, otherwise as described above, prior to the addition of 100 μCi ml-1 of Translabel (PIERCE/Amersham, Amersham, UK) ^35S methionine/cysteine at the start of BFA, control treatment and incubated for the indicated times. Pulse-chase labelled proteins were analyzed by SDS-PAGE, western analysis or autoradiography and silver staining.
Immunoprecipitation was carried out by first preparing preformed immune complexes as follows: Purified specific mouse monoclonal or rabbit polyclonal antibody were incubated in stoichiometric ratio with purified secondary goat anti-mouse or anti-rabbit antibody at a concentration of 10 μg ml-1 of 150 mM NaCl, 10 mM Tris-HCl, 1% (w/v) NP40, pH 7.8 with gentle agitation for 3 hours at 4° C. In a separate reaction their respective isotype matched control antibodies were coupled to protein A sepharose beads (Pharmacia, Uppsala, Sweden). […] The specific immune precipitate was recovered by centrifugation at 13,000 rpm for 30 minutes at 4° C., washed twice with 10 mM Tris-HCl at pH 6.8 and analyzed by SDS-PAGE and subsequent silver stain, transfer to solid support and streptavidin-AP detection and autoradiography. […]

huHsp47 RNA = experiment: Northern analysis of huHsp47 RNA expression in BFA treated EC; format: cell-based, human; conditions: EC under BFA treatment, 0, 2 and 6 hour time points
Method: Northern analysis of huHsp47 RNA expression was carried out via a^32P-ATP nick translation labeling of the agarose gel purified full-length huHSP47 cDNA as probe and human beta action (a kind gift of Dr. S.N. Cohen) cDNA as internal control probe. Total RNA was harvested at 0 hour, 2 hour and 6 hour time points from EC undergoing BFA treatment. RNA for each time point was purified, denatured, subjected to formamide flatbed agarose gel electrophoresis, transferred to nitrocellulose, prehybridized, hybridized with the ^32P-labelled probes, washed under stringent conditions and autoradiographed without intensifier screens at −80° C. using techniques well known to those skilled in the art (see Sambrook et al. Molecular Cloning, A Laboratory Manual, second edition, Cold Spring Harbor Laboratory Press, 1989).

[1] = molecular target: receptors for huHsp47 on CIK cells; experiment: FACS of mature d21 CIK cells stained with 10 ug/ml eGFP-huHsp47, PE-CD56 co-staining
mature d21 CIK = experiment: FACS analysis of mature d21 CIK with eGFP-tagged huHsp47 probe; format: binding, human; conditions: 10 μg eGFP-huHsp47 per ml, PE-CD56 co-staining
Method: For Fluorescence Activated Cell Sorting (FACS) 10^6 effector or target cells were washed twice with Ca^2+, Mg^2+ and 5% FCS containing PBS buffer, suspended in 50 μl of this buffer and placed at 0-4° C. in the dark. 1 μg of FITC-, PE-, Per-CP or TriColor labelled monoclonal antibody (Beckton Dickinson, San Jose, Calif.) per staining reaction of 10^6 cells was mixed with the cells and incubated for 15 to 30 minutes at 0-4° C. in the dark. Stained cells were subjected to three subsequent washes with 10 volumes of Ca^2+, Mg^2+ and 5% FCS containing PBS and taken up in 500 μl of this buffer for analysis or sort by FACScan/FACStar (Beckton Dickinson, San Jose, Calif.) with excitation at 488 nm and the appropriate channel filters for detection of emission.
The huHsp47δRDEL-enhanced green fluorescent protein (eGFP) fusion protein, expressed under the control of the CMV IE promoter, was isolated as described above and used as a FACS probe to search for huHsp47 cell surface binding proteins. […]
eGFP-tagged Hsp47 FACS probe was generated through additional genetic engineering (FIG. 8A) (SEQ ID NOS: 15-18). […] FACS analysis of mature d21 CIK with eGFP-tagged HuHsp47 as FACS probe for the FITC channel, with CE56-PE co-staining, is based on differences in the Hsp47 binding ability of the analyzed CIK. […]

`CC1CCCC=CC2CC(O)CC2C(O)C=CC(=O)O1` (centres unmarked) [BFA, 1,6,7,8,9,11a,12,13,14,14a-decahydro-1,13-dihydroxy-6-methyl-4H-cyclopent[f]oxacyclotridecin-4-one, reference compound] was tested, and the “effect on ability of CIK cells to lyse tumor targets” value (OCI-Ly8 tumor cell) was “did not affect”, the “suppression of CIK mediated lysis of EC” value (HUVEC; BFA 0, 2.5, 5, 7.5 and 10 μM for 6 hours, E:T 20:1) was “suppress the CIK mediated lysis of EC in a dose dependent manner” and the “persistence of resistant EC state after removal of the agent” value (HUVEC; after BFA removal) was “at least six hours”. The “block of CIK mediated lysis of HUVECs” value (HUVEC; preincubation in BFA (so in the source), 6 hours, E:T 20:1) was “completely block”, the “reduction of CIK mediated cytotoxicity against EC targets” value (HUVEC; preincubation with 2.5 μM BFA for 6 hours, d21 CIK, E:T 20:1) was 40% and the “^35S labeled 46.5 KDa protein in IP from EC” value (46.5 KDa protein (Hsp47); non-protective dose of 30 μM BFA) was “not detectable”. The “^35S labeled 46.5 KDa protein in IP from EC” value (46.5 KDa protein (Hsp47); protective dose of 10 μm BFA) was “contained a ^35S labeled 46.5 KDa protein”, the “expression of housekeeping gene beta action” value (huHsp47 RNA) was “does not affect” and the huHsp47 gene expression (huHsp47 RNA) was “does upregulate”.

“huHsp47δRDEL-enhanced green fluorescent protein (eGFP) fusion protein (from UniProt P50454 19-414)” was tested, and the percent of cells positive for both eGFP-huHsp47 and PE-CD56 probes [1] was 26%.

B1: eGFP-huHsp47: huHsp47δRDEL-enhanced green fluorescent protein fusion protein used as FACS probe (protein)
chain: AEVKKPVEAAAPGTAEKLSSKATTLAEPSTGLAFSLYQAMAKDQAVENILVSPVVVASSLGLVSLGGKATTASQAKAVLSAEQLRDEEVHAGLGELLRSLSNSTARNVTWKLGSRLYGPSSVSFADDFVASSKQHYNCEHSKINFPDKRSALQSINEWAAQTTDGKLPEVTKDVESTDGALLVNAMFFKPHWDEKFHHKMVDNRGFMVTRSYTVGVTMMHRTGLYNYYDDEKEKLQLVEMPLAHKLSSLIILMPHHVEPLERLEKLLTKEQLKIWMGKMQKKAVAISLPKGVVEVTHDLQKHLAGLGLTEAIDKNKADLSRMSGKKDLYLASVFHATAFELDTDGNPFDQDIYGREELRSPKLFYADHPFIFLVRDTQSGSLLFIGRLVRLKGDKM
modifications: left off: large carriers
notes: huHsp47δRDEL-enhanced green fluorescent protein fusion protein used as FACS probe
With B1 the “CIK cells stained by eGFP-tagged Hsp47 probe” value (mature d21 CIK) was 26%.

B2: huHsp47: native human Hsp47, 46.5 KDa protein gelatin-affinity purified from BFA induced HUVEC (protein)
chain: AEVKKPVEAAAPGTAEKLSSKATTLAEPSTGLAFSLYQAMAKDQAVENILVSPVVVASSLGLVSLGGKATTASQAKAVLSAEQLRDEEVHAGLGELLRSLSNSTARNVTWKLGSRLYGPSSVSFADDFVASSKQHYNCEHSKINFPDKRSALQSINEWAAQTTDGKLPEVTKDVESTDGALLVNAMFFKPHWDEKFHHKMVDNRGFMVTRSYTVGVTMMHRTGLYNYYDDEKEKLQLVEMPLAHKLSSLIILMPHHVEPLERLEKLLTKEQLKIWMGKMQKKAVAISLPKGVVEVTHDLQKHLAGLGLTEAIDKNKADLSRMSGKKDLYLASVFHATAFELDTDGNPFDQDIYGREELRSPKLFYADHPFIFLVRDTQSGSLLFIGRLVRLKGDKMRDEL
In the case of B2, the “protection of EC from CIK mediated lysis” value (HUVEC; 20 μm of gelatin-affinity purified huHsp47 per 300 μl) is reported as “completely protect”, the “protection of EC from CIK lysis by pre-incubation with purified native protein” value (HUVEC) is reported as “protects EC” and the “protection of EC from CIK lysis by pre-incubation with purified native protein” value (HUVEC; listed as p46.5) is reported as “protect previously CIK sensitive EC in a dose responsive fashion”.
